Data as given in patent US10703798B2, “Methods of cancer therapy by inhibiting fusion polypeptides comprising fibroblast growth factor receptor 2 (FGFR2) and vinculin (VCL)” (DEBIOPHARM INTERNATIONAL SA, priority 2014, dated 2020).
pIC50: −log10 of the molar value. “Also recorded” adds a separate entry of the source. Read-outs that look alike come from different tables or passages of the source.

Assays:
[1] = target: T1, FGFR2-VCL fusion polypeptide (Homo sapiens, UniProt P21802); experiment: Autophosphorylation of FGFR2-VCL in transiently transfected HEK293T cells, Western blot; format: cell-based; details: FGFR2-VCL-expressing HEK293T cells, 1E-05 M, 90 min
T1 construct: VCL polypeptide part (fusion partner, same polypeptide); expressed in transfected cells; host or cells: HEK293T; the other entry of the earlier key: VCL (P18206, Vinculin)
Excerpt: (§1) In this example, the following sequences were used: the FGFR2-CCDC147 fusion gene was composed of SEQ ID NO: 16 for the FGFR2 part (nucleic acid 1 to nucleic acid 2574) and SEQ ID NO: 20 for the CCDC147 part (nucleic acid 156 to nucleic acid 3313); and the FGFR2-VCL fusion gene was composed of SEQ ID NO: 16 for the FGFR2 part (nucleic acid 1 to nucleic acid 2574) and SEQ ID NO: 18 for the VCL part (nucleic acid 2117 to nucleic acid 5482).
(§2) HEK293T cells were transiently transfected with expression plasmids containing either an FGFR2-VCL or an FGFR2-CCDC147 fusion gene, which genes had been supplemented with a C-terminal double myc-tag extension. As a negative control, HEK293T cells were mock-transfected. […] The expression of myc-tagged fusion polypeptide was determined using the anti-myc antibody 9E10 (α-myc), and the phosphorylation analysis was performed with the anti-phospho-tyrosine antibody pY99 (α-pY).

[2] = target: T2, FGFR2-CCDC147 fusion polypeptide (Homo sapiens, UniProt P21802); experiment: Autophosphorylation of FGFR2-CCDC147 in transiently transfected HEK293T cells, Western blot; format: cell-based; details: FGFR2-CCDC147-expressing HEK293T cells, 1E-05 M, 90 min
T2 construct: CCDC147 (CFAP58) polypeptide part (fusion partner, same polypeptide); expressed in transfected cells; host or cells: HEK293T; the other entry of the earlier key: CFAP58 (Q5T655, Cilia- and flagella-associated protein 58)
Excerpt: as §1, §2

[3] = target: T1, FGFR2-VCL fusion polypeptide; experiment: Autophosphorylation of FGFR2-VCL in transiently transfected HEK293T cells, sandwich phosphotyrosine ELISA; format: cell-based; details: FGFR2-VCL-expressing HEK293T cells, 1E-05 M, 90 min
Excerpt: as §1
(§3) After treatment, autophosphorylation of the FGFR2 fusion polypeptides was analysed using a sandwich phosphotyrosine ELISA. Each condition was done in duplicates.

[4] = target: T2, FGFR2-CCDC147 fusion polypeptide; experiment: Autophosphorylation of FGFR2-CCDC147 in transiently transfected HEK293T cells, sandwich phosphotyrosine ELISA; format: cell-based; details: FGFR2-CCDC147-expressing HEK293T cells, 1E-05 M, 90 min
Excerpt: as §1, §3

Rat2 parental cells [5] = experiment: Cell proliferation assay using FACS, parental cells; format: cell-based, rat; details: 72 h with inhibitor, cells counted by FACS, read-out: Relative IC50
Procedure: (§4) Stable Rat2 cell pools stably expressing FGFR2-CCDC147 or FGFR2-VCL fusions, respectively, were generated using pExoIN2-based expression plasmids ExoIN2-FGFR2_CCDC147 and pExoIN2-FGFR2_VCL. pExoIN2 was obtained from Trenzyme, (Germany). The latter expression plasmids were introduced into Rat2 cells by electroporation (LONZA Nucleofector II Device/program [X-005], Solution R). 24 h post-transduction, cells were subjected to 1.5 µg/mL puromycin to derive stable expressor cell pools. The FGFR2-CCDC147 sequence used in this example was composed of SEQ ID NO: 16 for the FGFR2 part (nucleic acid 1 to nucleic acid 2574) and SEQ ID NO: 20 for the CCDC147 part (nucleic acid 156 to nucleic acid 3313). The FGFR2-VCL sequence used was composed of SEQ ID NO: 16 for the FGFR2 part (nucleic acid 1 to nucleic acid 2574) and SEQ ID NO: 18 for the VCL part (nucleic acid 2117 to nucleic acid 5482).

[6] = tested on: FGFR2-VCL expressing Rat2 cells; experiment: Cell proliferation assay using FACS, FGFR2-VCL expressing cells; format: cell-based, rat; details: 72 h with inhibitor, cells counted by FACS, read-out: Relative IC50
Procedure: (§5) At the end of the incubation period, cells were counted by FACS. IC50 values were calculated in Graphpad Prism 6 using sigmoidal response (variable slope) curve fit.

[7] = tested on: FGFR2-CCDC147 expressing Rat2 cells; experiment: Cell proliferation assay using FACS, FGFR2-CCDC147 expressing cells; format: cell-based, rat; details: 72 h with inhibitor, cells counted by FACS, read-out: Relative IC50
Procedure: as §5

Rat2 parental cells [8] = details: read-out: Relative IC50, 72 h with inhibitor, cellular ATP content (Cell Titer Glo)
Procedure: as §4
(§6) Rat2 cells obtained as per Example 4 (either parental cells or cells expressing FGFR2-VCL or FGFR2-CCDC147 fusion polypeptide) were used in this assay. Cells were seeded in 96 well plates and cultured for 24 h before addition of FGFR inhibitors (the same as in section (1) above). After 72 h of further incubation, cell growth was analyzed by determination of the cellular ATP content (Cell Titer Glo; Promega) using a luminescence plate reader.

[9] = tested on: FGFR2-VCL expressing Rat2 cells; experiment: Cell proliferation assay using Cell Titer Glo, FGFR2-VCL expressing cells; format: cell-based, rat; details: 72 h with inhibitor, cellular ATP content (Cell Titer Glo), read-out: Relative IC50
Procedure: as §4, §6

[10] = tested on: FGFR2-CCDC147 expressing Rat2 cells; experiment: Cell proliferation assay using Cell Titer Glo, FGFR2-CCDC147 expressing cells; format: cell-based, rat; details: 72 h with inhibitor, cellular ATP content (Cell Titer Glo), read-out: Relative IC50
Procedure: as §4, §6

Rat2-FGFR2-CCDC147 tumor = experiment: In vivo sensitivity, subcutaneously implanted Rat2-FGFR2-CCDC147 tumor model; set-up: species or system female NMRI nude mice; details: 30 and 60 mg/kg orally once daily for 14 consecutive days
Procedure: On Day 0, 5×10^6 FGFR2-CCDC147-expressing Rat2 cells in 100 μl PBS were subcutaneously implanted into the left flank of 5-6 week-old female NMRI nude mice (group size of 6 animals). […] Primary tumor sizes were measured twice weekly by calipering. Animals were terminated on last day of treatment and tumors weighed at necropsy.

Rat2-FGFR2-VCL tumor = experiment: In vivo sensitivity, subcutaneously implanted Rat2-FGFR2-VCL tumor model; set-up: species or system female NMRI nude mice
Procedure: On Day 0, 1×10^6 FGFR2-VCL expressing Rat2 cells in 100 μl PBS were subcutaneously implanted into the left flank of 5-6 week-old female NMRI nude mice (group size of 6 animals).
Primary tumor sizes were measured twice weekly by calipering. Animals were terminated on last day of treatment and tumors weighed at necropsy.

T2 sequence (P21802 with tags, fused parts or gaps): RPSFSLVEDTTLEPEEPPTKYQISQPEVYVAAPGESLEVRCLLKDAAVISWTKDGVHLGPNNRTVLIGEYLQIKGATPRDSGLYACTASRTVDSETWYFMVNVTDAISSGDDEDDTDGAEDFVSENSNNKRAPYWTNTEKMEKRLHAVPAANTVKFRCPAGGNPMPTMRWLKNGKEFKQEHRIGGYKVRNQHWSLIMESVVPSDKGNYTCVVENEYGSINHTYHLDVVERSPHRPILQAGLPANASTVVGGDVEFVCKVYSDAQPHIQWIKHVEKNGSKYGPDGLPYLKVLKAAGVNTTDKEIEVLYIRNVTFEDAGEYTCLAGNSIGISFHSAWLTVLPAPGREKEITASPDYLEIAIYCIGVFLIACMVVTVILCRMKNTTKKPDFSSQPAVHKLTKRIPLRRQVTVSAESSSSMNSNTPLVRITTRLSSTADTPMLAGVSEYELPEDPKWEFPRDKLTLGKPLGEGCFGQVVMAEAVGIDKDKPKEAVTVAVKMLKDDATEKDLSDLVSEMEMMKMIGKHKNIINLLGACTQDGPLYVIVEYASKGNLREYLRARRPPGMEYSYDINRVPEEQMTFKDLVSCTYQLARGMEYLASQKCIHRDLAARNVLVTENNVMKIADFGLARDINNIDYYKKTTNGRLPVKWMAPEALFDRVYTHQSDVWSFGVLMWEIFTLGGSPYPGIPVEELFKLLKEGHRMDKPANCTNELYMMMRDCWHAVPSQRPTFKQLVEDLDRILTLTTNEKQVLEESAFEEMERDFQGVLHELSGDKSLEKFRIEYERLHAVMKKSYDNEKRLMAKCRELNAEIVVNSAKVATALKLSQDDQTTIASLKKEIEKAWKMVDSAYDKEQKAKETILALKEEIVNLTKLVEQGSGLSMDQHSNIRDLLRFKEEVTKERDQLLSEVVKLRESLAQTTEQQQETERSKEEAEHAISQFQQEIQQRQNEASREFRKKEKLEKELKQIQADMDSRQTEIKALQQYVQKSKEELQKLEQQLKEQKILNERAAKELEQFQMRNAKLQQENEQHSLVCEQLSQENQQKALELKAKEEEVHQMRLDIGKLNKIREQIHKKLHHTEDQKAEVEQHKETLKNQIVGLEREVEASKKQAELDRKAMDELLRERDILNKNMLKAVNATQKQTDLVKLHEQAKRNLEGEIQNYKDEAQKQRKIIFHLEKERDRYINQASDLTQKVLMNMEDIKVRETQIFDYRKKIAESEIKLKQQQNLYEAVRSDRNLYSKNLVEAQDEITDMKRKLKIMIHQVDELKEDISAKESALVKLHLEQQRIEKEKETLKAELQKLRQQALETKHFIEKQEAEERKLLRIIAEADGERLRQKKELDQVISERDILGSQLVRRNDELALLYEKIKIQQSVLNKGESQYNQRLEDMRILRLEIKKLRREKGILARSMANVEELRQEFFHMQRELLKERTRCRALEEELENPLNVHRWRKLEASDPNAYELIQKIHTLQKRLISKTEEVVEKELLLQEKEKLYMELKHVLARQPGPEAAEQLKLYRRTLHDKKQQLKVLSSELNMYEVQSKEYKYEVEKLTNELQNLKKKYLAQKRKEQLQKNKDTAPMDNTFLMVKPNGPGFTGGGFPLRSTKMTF
T1 sequence (P21802 with tags, fused parts or gaps): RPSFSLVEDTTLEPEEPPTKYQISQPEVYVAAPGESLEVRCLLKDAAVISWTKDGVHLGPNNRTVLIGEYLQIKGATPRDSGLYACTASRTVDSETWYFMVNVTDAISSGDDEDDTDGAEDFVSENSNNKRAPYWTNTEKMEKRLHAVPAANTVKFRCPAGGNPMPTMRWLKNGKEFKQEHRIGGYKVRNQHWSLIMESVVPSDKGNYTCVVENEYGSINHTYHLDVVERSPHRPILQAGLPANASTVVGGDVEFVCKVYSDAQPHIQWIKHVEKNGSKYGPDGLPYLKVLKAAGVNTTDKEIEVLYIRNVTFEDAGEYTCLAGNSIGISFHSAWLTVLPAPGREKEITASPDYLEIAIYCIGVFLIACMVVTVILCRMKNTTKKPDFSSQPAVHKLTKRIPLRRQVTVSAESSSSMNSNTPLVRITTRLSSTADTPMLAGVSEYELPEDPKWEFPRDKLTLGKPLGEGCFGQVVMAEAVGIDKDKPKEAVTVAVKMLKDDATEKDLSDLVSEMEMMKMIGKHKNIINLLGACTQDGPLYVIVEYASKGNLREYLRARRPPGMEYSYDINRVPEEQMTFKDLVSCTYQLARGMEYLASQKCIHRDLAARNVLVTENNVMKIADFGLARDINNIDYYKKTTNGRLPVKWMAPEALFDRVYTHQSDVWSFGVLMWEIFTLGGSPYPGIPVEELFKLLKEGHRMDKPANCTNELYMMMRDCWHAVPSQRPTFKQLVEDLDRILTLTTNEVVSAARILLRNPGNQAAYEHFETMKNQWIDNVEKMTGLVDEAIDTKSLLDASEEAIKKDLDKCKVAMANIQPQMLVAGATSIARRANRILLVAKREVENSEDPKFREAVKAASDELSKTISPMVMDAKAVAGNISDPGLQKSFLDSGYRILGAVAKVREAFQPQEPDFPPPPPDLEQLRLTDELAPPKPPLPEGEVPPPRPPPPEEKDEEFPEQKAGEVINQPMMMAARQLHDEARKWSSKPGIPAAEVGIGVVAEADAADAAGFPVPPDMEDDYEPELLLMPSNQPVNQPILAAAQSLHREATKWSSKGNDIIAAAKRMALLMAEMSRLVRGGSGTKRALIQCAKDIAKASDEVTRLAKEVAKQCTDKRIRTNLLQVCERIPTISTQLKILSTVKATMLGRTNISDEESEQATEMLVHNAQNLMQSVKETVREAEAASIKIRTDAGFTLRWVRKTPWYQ

autophosphorylation of fusion polypeptide (anti-phospho-tyrosine Western blot) [1] | autophosphorylation of fusion polypeptide (anti-phospho-tyrosine Western blot) [2] | levels of FGFR phosphorylation (phosphotyrosine ELISA) [3] | levels of FGFR phosphorylation (phosphotyrosine ELISA) [4] | SMILES | pIC50 (Rat2 parental cells [5]) | pIC50 [6] | pIC50 [7] | pIC50 (Rat2 parental cells [8]) | pIC50 [9] | pIC50 [10] | effect on body weight (Rat2-FGFR2-CCDC147 tumor) | antitumor efficacy (tumor growth) (Rat2-FGFR2-CCDC147 tumor; established tumors) | antitumor efficacy (tumor growth) (Rat2-FGFR2-VCL tumor; 60 mg/kg-treated group, orally once daily for 14 consecutive days) | antitumor efficacy (tumor growth) (Rat2-FGFR2-VCL tumor; 30 and 60 mg/kg orally once daily for 14 consecutive days, established tumors) | effect on body weight (Rat2-FGFR2-VCL tumor; 30 or 60 mg/kg orally once daily for 14 consecutive days)
substantially reduced | somewhat more marginally | decreased | decreased | COC(=O)c1ccc2c(c1)NC(=O)/C2=C(\Nc1ccc(N(C)C(=O)CN2CCN(C)CC2)cc1)c1ccccc1 [Vargatef] |  |  |  |  |  |  |  |  |  |  | 
 |  |  |  | Cc1nc2cc(-n3ncc(C(=O)c4cc5ccccc5[nH]4)c3N)ccc2[nH]1 [Compound A] | < 5.99 | 6.64 | 7.83 | < 5.52 | 9.28 | 7.13 | no significant effect | inhibited tumor growth; also recorded: highly significant antitumoral efficacy | Tumor stasis | inhibited tumor growth; also recorded: highly significant and dose-dependent antitumoral efficacy | without significantly affecting body weight
